Where “and” joins values, the source holds several entries; their conditions need not be identical. Equal entries are not always repeated. Entries after “also recorded” stand apart in the source; their conditions may differ. Residues, ends and D or L forms follow the SMILES beside them. *: point of attachment. Myristoyl = CCCCCCCCCCCCCC(=O)*
Assays:
MARCKS = MARCKS phosphorylation in NHBE cells (radiolabeled immunoprecipitation assay); assay type: cell-based, human
Procedure: NHBE cells were labeled with [^32 P]orthophosphate and then exposed to the reagents: (a) Rp-8-Br-PET-cGMP (100 μM); (b) okadaic acid (500 nM); (c) 8-Br-cGMP (1 μM); and (d) PMA (100 nM). MARCKS phosphorylation in response to the treatments was evaluated by immunoprecipitation assay.
To reveal molecular events by which MARCKS links kinase activation to mucin secretion, phosphorylation of MARCKS in response to PKC/PKG activation was investigated in depth, and results are presented as Results-I-4A. […] Once phosphorylated, MARCKS was translocated from the plasma membrane to the cytoplasm. More specifically, the activation of PKC results in MARCKS phosphorylation in NHBE cells. Cells were labeled with [^32 P]orthophosphate for 2 h and then exposed to the stimulatory and/or inhibitory reagents (see below). MARCKS phosphorylation in response to the treatments was evaluated by immunoprecipitation with the following specifics, designated Results-I-4A:
[^32P]phosphate, cells were preincubated for 2 h in phosphate-free Dulbecco's modified Eagle's medium containing 0.2% bovine serum albumin and then labeled with 0.1 mCi/ml [^32 P]orthophosphate (9000 Ci/mmol, PerkinElmer Life Sciences) for 2 h. For labeling with [^3H]myristic acid or ^3H-amino acids, cells were incubated overnight in medium containing 50 μCi/ml [^3H]myristic acid (49 Ci/mmol, PerkinElmer Life Sciences) or 0.2 mCi/ml [^3H]leucine (159 Ci/mmol, PerkinElmer Life Sciences) plus 0.4 mCi/ml [^3H]proline (100 Ci/mmol, PerkinElmer Life Sciences). Following labeling, cells were exposed to stimulatory reagents for 5 min. When an inhibitor was used, cells were preincubated with the inhibitor for 15 min prior to stimulation. At the end of the treatments, cells were lysed in a buffer containing 50 mM Tris-HCl (pH 7.5), 150 mM NaCl, 1 mM EDTA, 10% glycerol, 1% Nonidet P-40, 1 mM phenylmethylsulfonyl fluoride, 1 mM benzamidine, 10 μg/ml pepstatin A, and 10 μg/ml leupeptin. Trichloroacetic acid precipitation and scintillation counting may determine the radiolabeling efficiency in each culture. Immunoprecipitation of MARCKS protein was carried out according to the method of Spizz and Blackshear using cell lysates containing equal counts/min. Spizz et al., J. Biol. Chem. 271, 553-562 (1996). Precipitated proteins were resolved by 8% SDS-polyacrylamide gel electrophoresis and visualized by autoradiography. Anti-human MARCKS antibody (2F12) and nonimmune control antibody (6F6) were used in this assay.
Phosphorylation of MARCKS by PMA was attenuated by Calphostin C (500 nM). NHBE cells also contained substantial amounts of cGMP-dependent protein kinase type 1α (PKG-1α) activity, which was localized to the cytosolic fraction. […] In addition, the phosphorylation of MARCKS induced by PMA was reversed by incubation with 8-Br-cGMP (10 μM).

[1] = tested on: ozone-induced neutrophil migration into the airways; assay: Mouse model of ozone-induced COPD (BAL analysis); assay type: in vivo; settings: for % Neutrophils found in BAL fluid: intratracheal 1.0 mM peptide 30 min before ozone 2 hours (PBS + Ozone 21.4); for IFNγ in BAL fluid: peptide pretreatment then ozone (PBS + ozone approx. 18); for IL-6 in BAL fluid: peptide pretreatment then ozone (PBS + ozone approx. 197); for KC in BAL fluid: peptide pretreatment then ozone (PBS + ozone approx. 240); for % Inhibition of neutrophil migration into BAL fluid: relative to control group treated with PBS
Procedure: Ten-week-old Balb/C female mice were obtained from Charles River laboratories and housed under NIH guidelines in groups of 5 per cage. The animals received standard rodent diet and filtered water ad libitum. Three treatment groups of mice, 5 animals in each group, were each anesthetized by intraperitoneal injection of Ketamine (100 mg/kg) and Xylazine (20 mg/kg) and then pretreated by intratracheal administration with […] of either PBS alone, or a solution of 1.0 mM MANS peptide in PBS, or a solution of a 1.0 mM of a MANS-fragment-peptide designated as SEQ ID NO: 15 (MA-GAQFSKTAAK) in PBS. After 30 minutes, the animals were then placed in the appropriate custom-made chamber for ozone or forced air exposures. The animals were exposed to ozone for 2 hours (at ozone concentrations of 1-10 ppm by a slightly modified method described by Haddad et al, 1995. (Haddad E-B, Salmon M, Sun J, Liu S, Das A, Adcock I, Barnes P J, and Chung K F, FEBS Letters, 363:285-288, 1995). The ozone was generated using an ozone generator apparatus model OL80F/B from OzoneLab, Burton, British Columbia, Canada. Ozone concentration was continuously monitored using a Teledyne Photometric O3 Analyzer (model 400E, Teledyne Instruments, City of Industry, Calif.). Two additional groups of mice, each without any pretreatment, were either exposed to ozone under the same conditions or exposed to forced air under conditions similar to the ozone treatment group but absent ozone. After exposure, the animals were sacrificed by exsanguination and the lungs were serially lavaged 2 times with 1.0 mL aliquots of PBS. The collected bronchoalveolar lavage (BAL) fluid was centrifuged to remove the cells for subsequent counting and differential analysis. Recovered lavage fluid was used for protein and additional analysis of IL-6, IFNγ, and KC (murine IL-8 analog) by ELISA assay (assay kits obtained from R&D Systems, Minneapolis, Minn.).

[2] = inhibitor 500 nM + 100 nM PMA + 1 μM 8-Br-cGMP

Row | SMILES | MARCKS phosphorylation (band in immunoprecipitation assay) (MARCKS; [2]) | Diminished IL-6 levels (inhibition) vs. PBS control ([1]; after ozone exposure) | Effect on interferon-γ levels ([1]; after ozone exposure) | Reduced neutrophil cell infiltration in the BAL fluid vs. PBS control ([1]; after ozone exposure) | % Neutrophils found in BAL fluid [1] | IFNγ in BAL fluid [1] | IL-6 in BAL fluid [1] | KC in BAL fluid [1] | % Inhibition of neutrophil migration into BAL fluid [1] | also measured
1 | C=C1[C@@H](O)[C@@H]2O[C@]3(CC[C@H](/C=C/[C@@H](C)[C@@H]4CC(C)=C[C@@]5(O[C@H](C[C@@](C)(O)C(=O)O)CC[C@H]5O)O4)O3)CC[C@H]2O[C@@H]1[C@@H](O)C[C@H](C)[C@H]1O[C@@]2(CCCCO2)CC[C@H]1C [okadaic acid] | dark band |  |  |  |  |  |  |  |  | Effect on reversal of MARCKS phosphorylation by 8-Br-cGMP (10 μM) (MARCKS; 500 nM (Example 6)): inhibited this effect; MARCKS phosphorylation (band in immunoprecipitation assay) (MARCKS; inhibitor 500 nM + 100 nM PMA): dark band; MARCKS phosphorylation (band in immunoprecipitation assay) (MARCKS; inhibitor 500 nM + 100 nM PMA + 1 μM 8-Br-cGMP, listed as Okadaic acid): showed a band; MARCKS phosphorylation (band in immunoprecipitation assay) (MARCKS; inhibitor 500 nM + 100 nM PMA, listed as Okadaic acid): showed a band; MARCKS phosphorylation (band in immunoprecipitation assay) (MARCKS; inhibitor 500 nM + 1 μM 8-Br-cGMP): medium dark band; MARCKS phosphorylation (band in immunoprecipitation assay) (MARCKS; inhibitor 500 nM + 1 μM 8-Br-cGMP, listed as Okadaic acid): faint band; MARCKS phosphorylation (band in immunoprecipitation assay) (MARCKS; inhibitor 500 nM alone): faint band
2 | C[C@@](O)(/C=C/[C@H]1CC=CC(=O)O1)[C@@H](C[C@@H](O)\C=C/C=C\C=C\CO)OP(=O)(O)O [fostriecin] | strong band |  |  |  |  |  |  |  |  | Effect on PKG-induced MARCKS dephosphorylation (MARCKS; 1-500 nM, with PMA 100 nM + 8-Br-cGMP 1 μM): inhibited PKG-induced MARCKS dephosphorylation in a concentration-dependent manner; MARCKS phosphorylation (band in immunoprecipitation assay) (MARCKS; inhibitor alone, concentration not stated (I-5C lane 9)): only a trace amount
3 | CCCCCCCCCCCCCC(=O)NCC(=O)N[C@@H](C)C(=O)N[C@@H](CCC(N)=O)C(=O)N[C@@H](Cc1ccccc1)C(=O)N[C@@H](CO)C(=O)N[C@@H](CCCCN)C(=O)N[C@H](C(=O)N[C@@H](C)C(=O)N[C@@H](C)C(=O)N[C@@H](CCCCN)C(=O)O)[C@@H](C)O [SEQ ID NO: 15, N-myristoyl-GAQFSKTAAK] (Myristoyl-GAQFSKTAAK-OH; C-terminus assumed) |  | 75%±8% and ~75% | little effect | 47.7%±5% | 11.2% | approximately 9 pg/ml | approximately 49 pg/ml | approximately 147 pg/ml | 47.7% | Diminished KC concentrations (inhibition) vs. PBS control ([1]; after ozone exposure): 38%±5% and ~40%
4 | CCCCCCCCCCCCCC(=O)O[C@@H]1[C@@H](C)[C@@]2(O)[C@@H](C=C(CO)C[C@]3(O)C(=O)C(C)=C[C@@H]23)[C@@H]2C(C)(C)[C@]12OC(C)=O [PMA, phorbol 12-myristate 13-acetate] |  |  |  |  |  |  |  |  |  | Increase in MARCKS phosphorylation (MARCKS; PMA 100 nM): 3-4 fold; MARCKS phosphorylation (band in immunoprecipitation assay) (MARCKS; reagent 100 nM alone): dark band; also recorded: very dark band; also recorded: showed a band; also recorded: strong band; also recorded: phosphorylated
5 | CCCCCCCCCCCCCC(=O)NCC(=O)N[C@@H](C)C(=O)N[C@@H](CCC(N)=O)C(=O)N[C@@H](Cc1ccccc1)C(=O)N[C@@H](CO)C(=O)N[C@@H](CCCCN)C(=O)N[C@H](C(=O)N[C@@H](C)C(=O)N[C@@H](C)C(=O)N[C@@H](CCCCN)C(=O)NCC(=O)N[C@@H](CCC(=O)O)C(=O)N[C@@H](C)C(=O)N[C@@H](C)C(=O)N[C@@H](C)C(=O)N[C@@H](CCC(=O)O)C(=O)N[C@@H](CCCNC(=N)N)C(=O)N1CCC[C@H]1C(=O)NCC(=O)N[C@@H](CCC(=O)O)C(=O)N[C@@H](C)C(=O)N[C@@H](C)C(=O)N[C@H](C(=O)N[C@@H](C)C(=O)O)C(C)C)[C@@H](C)O [MANS peptide] (Myristoyl-GAQFSKTAAKGEAAAERPGEAAVA-OH; C-terminus assumed) |  | approximately 85% | little effect | 93%±5% | 1.5% | approximately 13 pg/ml | approximately 23 pg/ml | approximately 60 pg/ml | 93.0% | Diminished IL-6 levels (inhibition) vs. PBS control ([1]; after ozone exposure, listed as MANS): 88%±8%
6 | Nc1nc2c(nc(Br)n2[C@@H]2O[C@@H]3COP(=O)(O)O[C@H]3[C@H]2O)c(=O)[nH]1 [8-Br-cGMP] |  |  |  |  |  |  |  |  |  | Effect on PMA-induced phosphorylation of MARCKS (MARCKS; 8-Br-cGMP 10 μM (Example 6)): reversed; MARCKS phosphorylation (band in immunoprecipitation assay) (MARCKS; reagent 1 μM alone): faint band; also recorded: no band; also recorded: only a trace amount
